Measurements from EP4806891A1 (Kangbaida (Sichuan) Biotechnology Co., Ltd., priority 2023, dated 2025).

Each compound was assayed against T1, HEK-Blue-hTLR8 cells (Homo sapiens, UniProt Q9NR97) (assay: HEK-Blue-hTLR8 cell inhibition assay). Details: R848 3 µM, 16 h, OD 620 nm, read-out: TLR8 IC50.
T1 construct: expressed in transfected cells; host or cells: HEK-Blue-hTLR8 cells (HEK293-derived reporter line)
T1 sequence (Q9NR97 27-1041): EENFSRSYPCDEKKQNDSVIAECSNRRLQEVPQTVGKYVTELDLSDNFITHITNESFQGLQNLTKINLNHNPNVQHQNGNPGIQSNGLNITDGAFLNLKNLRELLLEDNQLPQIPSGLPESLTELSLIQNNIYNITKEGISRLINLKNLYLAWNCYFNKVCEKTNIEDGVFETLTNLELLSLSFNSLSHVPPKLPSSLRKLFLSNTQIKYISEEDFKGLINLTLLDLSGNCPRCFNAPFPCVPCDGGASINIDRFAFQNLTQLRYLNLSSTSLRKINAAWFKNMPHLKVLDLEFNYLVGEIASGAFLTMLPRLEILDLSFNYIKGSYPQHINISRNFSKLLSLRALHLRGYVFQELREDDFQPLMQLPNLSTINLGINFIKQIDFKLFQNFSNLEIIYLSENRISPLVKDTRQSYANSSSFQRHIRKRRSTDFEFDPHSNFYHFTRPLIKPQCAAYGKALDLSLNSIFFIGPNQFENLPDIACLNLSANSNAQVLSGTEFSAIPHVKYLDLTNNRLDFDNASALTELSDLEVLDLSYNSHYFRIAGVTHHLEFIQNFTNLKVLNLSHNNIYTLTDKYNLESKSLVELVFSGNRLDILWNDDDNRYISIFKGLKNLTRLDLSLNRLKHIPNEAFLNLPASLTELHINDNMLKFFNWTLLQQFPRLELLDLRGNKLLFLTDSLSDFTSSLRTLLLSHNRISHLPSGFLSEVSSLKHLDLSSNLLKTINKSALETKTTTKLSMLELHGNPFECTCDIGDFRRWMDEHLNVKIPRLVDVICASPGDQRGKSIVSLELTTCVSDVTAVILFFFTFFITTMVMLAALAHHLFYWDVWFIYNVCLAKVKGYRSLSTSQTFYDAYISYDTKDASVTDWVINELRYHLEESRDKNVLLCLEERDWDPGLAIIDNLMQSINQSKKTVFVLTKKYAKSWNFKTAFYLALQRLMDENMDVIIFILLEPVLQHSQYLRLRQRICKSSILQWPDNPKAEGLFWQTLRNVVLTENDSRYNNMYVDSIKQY
Assay type: cell-based
In short: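 Cells were pre-incubated 4 h, then co-treated 16 h at 37 °C with compound (10 doses, 0.5–10000 nM final) plus R848 (0.8 µM for TLR7, 3 µM for TLR8) or ODN2006 (1 µM, TLR9). Reporter OD620 gave inhibition relative to DMSO blank and agonist-only controls; IC50 came from curve fitting.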

SMILES | IC50
FC(F)(F)c1ccc(N2C[C@]3(c4nnc(C5CCN(CC6CC6)CC5)o4)C[C@]3(C(F)(F)F)C2)c2cccnc12 [Compound 76, 2-(1-(cyclopropylmethyl)piperidin-4-yl)-5-((1S,5R)-5-(trifluoromethyl)-3-(8-(trifluoromethyl)quinolin-5-yl)-3-azabicyclo[3.1.0]hexan-1-yl)-1,3,4-oxadiazole] | < 100 nM
CN(C)[C@H]1CC[C@H](c2nnc([C@]34CN(c5ccc(C#N)c6ncccc56)C[C@@]3(C(F)(F)F)C4)o2)CC1 [Compound 21, 5-((1S,5R)-1-(5-((1R,4S)-4-(dimethylamino)cyclohexyl)-1,3,4-oxadiazol-2-yl)-5-(trifluoromethyl)-3-azabicyclo[3.1.0]hexan-3-yl)quinoline-8-carbonitrile] | < 100 nM
CN1CCC(c2nnc([C@]34CN(c5c(Br)cc(C#N)n6nccc56)C[C@@]3(C(F)(F)F)C4)o2)CC1 [Compound 86, 5-bromo-4-((1S,5R)-1-(5-(1-methylpiperidin-4-yl)-1,3,4-oxadiazol-2-yl)-5-(trifluoromethyl)-3-azabicyclo[3.1.0]hexan-3-yl)pyrazolo[1,5-a]pyridine-7-carbonitrile] | < 100 nM
CN1CCC(Oc2nnc([C@]34CN(c5ccc(C#N)n6ncc(F)c56)C[C@@]3(C(F)(F)F)C4)o2)CC1 [Compound 31, 3-fluoro-4-((1S,5R)-1-(5-((1-methylpiperidin-4-yl)oxy)-1,3,4-oxadiazol-2-yl)-5-(trifluoromethyl)-3-azabicyclo[3.1.0]hexan-3-yl)pyrazolo[1,5-a]pyridine-7-carbonitrile] | < 100 nM
N#Cc1ccc(N2C[C@]3(c4nnc(C#CCN5CCOCC5)o4)C[C@]3(C(F)(F)F)C2)c2cccnc12 [Compound 24, 5-((1S,5R)-1-(5-(3-morpholinoprop-1-yn-1-yl)-1,3,4-oxadiazol-2-yl)-5-(trifluoromethyl)-3-azabicyclo[3.1.0]hexan-3-yl)quinoline-8-carbonitrile] | < 100 nM
N#Cc1ccc(N2C[C@]3(c4nnc(C5CCNCC5F)o4)C[C@]3(C(F)(F)F)C2)c2cccnc12 (stereo partly shown) [Compound 33] | < 100 nM
CN1CCC(Cc2nnc([C@]34CN(c5ccc(C#N)c6ncccc56)C[C@@]3(C(F)(F)F)C4)o2)CC1 [Compound 37, 5-((1S,5R)-1-(5-((1-methylpiperidin-4-yl)methyl)-1,3,4-oxadiazol-2-yl)-5-(trifluoromethyl)-3-azabicyclo[3.1.0]hexan-3-yl)quinoline-8-carbonitrile] | < 100 nM
NC(=O)CN1CCC(c2nnc([C@]34CN(c5ccc(C(F)(F)F)c6ncccc56)C[C@@]3(C(F)(F)F)C4)o2)CC1 [Compound 77, 2-(4-(5-((1S,5R)-5-(trifluoromethyl)-3-(8-(trifluoromethyl)quinolin-5-yl)-3-azabicyclo[3.1.0]hexan-1-yl)-1,3,4-oxadiazol-2-yl)piperidin-1-yl)acetamide] | < 100 nM
CN1CC2CC1CC2c1nnc([C@]23CN(c4ccc(C#N)c5ncccc45)C[C@@]2(C(F)(F)F)C3)o1 (stereo partly drawn) [Compound 14, 5-((1S,5R)-1-(5-(2-methyl-2-azabicyclo[2.2.1]heptan-5-yl)-1,3,4-oxadiazol-2-yl)-5-(trifluoromethyl)-3-azabicyclo[3.1.0]hexan-3-yl)quinoline-8-carbonitrile] | < 100 nM
CN1CCC(c2nnc([C@]34CN(c5ccc(C#N)n6nccc56)C[C@@]3(C(F)(F)F)C4)o2)CC1 [Compound 59, 4-((1S,5R)-1-(5-(1-methylpiperidin-4-yl)-1,3,4-oxadiazol-2-yl)-5-(trifluoromethyl)-3-azabicyclo[3.1.0]hexan-3-yl)pyrazolo[1,5-a]pyridine-7-carbonitrile] | < 1000 nM
N#Cc1ccc(N2C[C@]3(c4nnc(CN5CCOCC5)o4)C[C@]3(C(F)(F)F)C2)c2cccnc12 [Compound 40, 5-((1S,5R)-1-(5-(morpholinomethyl)-1,3,4-oxadiazol-2-yl)-5-(trifluoromethyl)-3-azabicyclo[3.1.0]hexan-3-yl)quinoline-8-carbonitrile] | < 1000 nM
CN1[C@@H]2CC[C@H]1C[C@H](c1nnc([C@]34CN(c5ccc(C(F)(F)F)c6ncccc56)C[C@@]3(C(F)(F)F)C4)o1)C2 [Compound 79, 2-((1R,3S,5S)-8-methyl-8-azabicyclo[3.2.1]octan-3-yl)-5-((1S,5R)-5-(trifluoromethyl)-3-(8-(trifluoromethyl)quinolin-5-yl)-3-azabicyclo[3.1.0]hexan-1-yl)-1,3,4-oxadiazole] | < 100 nM
CN1CCC(c2nnc([C@]34CN(c5ccc(C#N)c6ncccc56)C[C@@]3(C(F)(F)F)C4)o2)C(F)C1 (stereo partly drawn) [Compound 50, 5-((1S,5R)-1-(5-(3-fluoro-1-methylpiperidin-4-yl)-1,3,4-oxadiazol-2-yl)-5-(trifluoromethyl)-3-azabicyclo[3.1.0]hexan-3-yl)quinoline-8-carbonitrile] | < 100 nM

The remaining lines, values ahead:

IC50 | SMILES
< 1000 nM | CN1CCC(c2nnc([C@]34CN(c5ccc(C#N)n6ncc(Cl)c56)C[C@@]3(C(F)(F)F)C4)o2)CC1 [Compound 84, 3-chloro-4-((1S,5R)-1-(5-(1-methylpiperidin-4-yl)-1,3,4-oxadiazol-2-yl)-5-(trifluoromethyl)-3-azabicyclo[3.1.0]hexan-3-yl)pyrazolo[1,5-a]pyridine-7-carbonitrile]
< 100 nM | CN1CC(Cc2nnc([C@]34CN(c5ccc(C#N)c6ncccc56)C[C@@]3(C(F)(F)F)C4)o2)C1 [Compound 36, 5-((1S,5R)-1-(5-((1-methylazetidin-3-yl)methyl)-1,3,4-oxadiazol-2-yl)-5-(trifluoromethyl)-3-azabicyclo[3.1.0]hexan-3-yl)quinoline-8-carbonitrile]
< 100 nM | CN(C)C12CCC(c3nnc([C@]45CN(c6ccc(C#N)c7ncccc67)C[C@@]4(C(F)(F)F)C5)o3)(CC1)CC2 [Compound 53, 5-((1S,5R)-1-(5-(4-(dimethylamino)bicyclo[2.2.2]octan-1-yl)-1,3,4-oxadiazol-2-yl)-5-(trifluoromethyl)-3-azabicyclo[3.1.0]hexan-3-yl)quinoline-8-carbonitrile]
< 1000 nM | N#Cc1ccc(N2C[C@]3(c4nnc(CN5CCCC5)o4)C[C@]3(C(F)(F)F)C2)c2cccnc12 [Compound 41, 5-((1S,5R)-1-(5-(Pyrrolidin-1-ylmethyl)-1,3,4-oxadiazol-2-yl)-5-(trifluoromethyl)-3-azabicyclo[3.1.0]hexan-3-yl)quinoline-8-carbonitrile]
< 100 nM | CN1CCC(Oc2nnc([C@]34CN(c5ccc(OC(F)(F)F)c6ncccc56)C[C@@]3(C(F)(F)F)C4)o2)CC1 [Compound 93, 2-((1-methylpiperidin-4-yl)oxy)-5-((1S,5R)-5-(trifluoromethyl)-3-(8-(trifluoromethoxy)quinolin-5-yl)-3-azabicyclo[3.1.0]hexan-1-yl)-1,3,4-oxadiazole]
< 100 nM | CC1(C)CC(Cc2nnc([C@]34CN(c5ccc(C#N)c6ncccc56)C[C@@]3(C(F)(F)F)C4)o2)CC(C)(C)N1 [Compound 26, 5-((1S,5R)-1-(5-((2,2,6,6-tetramethylpiperidin-4-yl)methyl)-1,3,4-oxadiazol-2-yl)-5-(trifluoromethyl)-3-azabicyclo[3.1.0]hexan-3-yl)quinoline-8-carbonitrile]
